“And” between values parts separate entries of the source, which are not always exact repeats. Identical values can stand only once.
Assay: Infectivity Assay: HIV cell culture assay¿MT-2 cells, 293T cells and the proviral DNA clone of NL4-3 virus were obtained from the NIH AIDS Research and Reference Reagent Program. MT-2 cells were propagated in RPMI 1640 media supplemented with 10% heat inactivated fetal bovine serum (FBS), 100 ug/ml penicillin G and up to 100 units/ml streptomycin. The 293T cells were propagated in DMEM media supplemented with 10% heat inactivated FBS, 100 ug/ml penicillin G and 100 ug/ml streptomycin. A recombinant NL4-3 proviral clone, in which a section of the nef gene was replaced with the Renilla luciferase gene, was used to make the reference virus used in these studies. The recombinant virus was prepared through transfection of the recombinant NL4-3 proviral clone into 293T cells using Transit-293 Transfection Reagent from Mirus Bio LLC (Madison, Wis.). Supernatent was harvested after 2-3 days after transfection, and the amount of virus present was titered in MT-2 cells using luciferase enzyme activity as a marker. Luciferase activity was quantitated using the EnduRen Live Cell Substrate from Promega (Madison, Wis.). Antiviral activities of compounds toward the recombinant virus were quantified by measuring luciferase activity in MT-2 cells infected for 4-5 days with the recombinant virus in the presence of serial dilutions of the compound.The 50% effective concentration (EC50) was calculated by using the exponential form of the median effect equation where (Fa)=1/[1+(ED50/drug conc.)m](Johnson V A, Byington R T. Infectivity Assay. In Techniques in HIV Research. ed. Aldovini A, Walker B D. 71-76. New York: Stockton Press. 1990).
Assay type: cell-based

SMILES: Cc1ccccc1S(=O)(=O)NC(=O)N[C@H](CCc1ccccc1)C(=O)N(C)c1ccc2c(c1)OCO2
- EC50: 55 µM

SMILES: CN(C(=O)[C@H](Cc1ccccc1)NC(=O)NS(=O)(=O)c1ccccc1)c1ccc2c(c1)OCO2
- EC50: 0.55 µM

SMILES: CN(C(=O)[C@@H](Cc1ccccc1)NC(=O)NS(=O)(=O)c1ccccc1)c1ccc2c(c1)OCO2
- EC50: 55 µM

SMILES: CN(C(=O)[C@H](Cc1ccccc1)NC(=O)NS(=O)(=O)c1ccccc1-c1cnn(C)c1)c1ccc2c(c1)OCO2
- EC50: 5.5 µM and 0.55 µM

SMILES: Cc1ccccc1S(=O)(=O)NC(=O)N[C@@H](CCc1ccccc1)C(=O)N(C)c1ccc2c(c1)OCO2
- EC50: 55 µM

Source: ChEMBL document CHEMBL5725642, “Inhibitors of human immunodeficiency virus replication” (2018)
